Results on 24 compounds are retold here after patent US8461328B2, “Tricyclic heterocyclic compounds, compositions and methods of use thereof” (Genentech, Inc., priority 2010, dated 2013).

Holding throughout (type): biochemical
Assay [1] has as its target T1, JAK1 (Homo sapiens, UniProt P23458).
T1 construct: made in house; host or cells: SF9 insect cells (baculovirus)
Description: JAK1 inhibition (Table 4). The following applies: read-out: JAK1 Ki.

The target of assay [2] is T2, JAK2 (Homo sapiens, UniProt O60674).
T2 construct: made in house; host or cells: SF9 insect cells (baculovirus)
T2 sequence (O60674 812-1132): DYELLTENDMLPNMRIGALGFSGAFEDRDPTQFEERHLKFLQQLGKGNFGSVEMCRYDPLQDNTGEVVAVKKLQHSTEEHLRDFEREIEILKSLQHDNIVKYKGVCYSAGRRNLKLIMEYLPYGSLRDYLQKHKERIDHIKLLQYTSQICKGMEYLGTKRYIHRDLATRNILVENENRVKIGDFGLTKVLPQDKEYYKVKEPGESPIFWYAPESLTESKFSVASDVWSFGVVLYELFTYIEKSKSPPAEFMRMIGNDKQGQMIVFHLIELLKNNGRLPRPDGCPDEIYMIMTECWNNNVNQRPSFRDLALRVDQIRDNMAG
Description: JAK2 inhibition (Table 4). The following applies: read-out: JAK2 Ki.

The target in assay [3] is T3, JAK3 (Homo sapiens, UniProt P52333).
T3 construct: made in house; host or cells: SF9 insect cells (baculovirus)
T3 sequence (P52333 783-1124): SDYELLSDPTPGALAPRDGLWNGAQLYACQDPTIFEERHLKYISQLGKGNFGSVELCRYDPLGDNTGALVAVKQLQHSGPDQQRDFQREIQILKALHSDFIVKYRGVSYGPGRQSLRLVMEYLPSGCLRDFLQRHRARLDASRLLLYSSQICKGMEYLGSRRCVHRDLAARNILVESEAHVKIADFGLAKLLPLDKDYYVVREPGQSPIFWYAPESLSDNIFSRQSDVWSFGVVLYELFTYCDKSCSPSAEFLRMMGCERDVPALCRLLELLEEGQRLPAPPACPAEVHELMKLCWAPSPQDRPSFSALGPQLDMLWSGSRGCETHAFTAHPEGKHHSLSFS
Briefly: JAK3 inhibition (Table 4). The following applies: read-out: JAK3 Ki.

Assay [4] concerns the target T4, TYK2 (Homo sapiens, UniProt P29597).
T4 construct: made in house; host or cells: SF9 insect cells (baculovirus)
T4 sequence (P29597 873-1187): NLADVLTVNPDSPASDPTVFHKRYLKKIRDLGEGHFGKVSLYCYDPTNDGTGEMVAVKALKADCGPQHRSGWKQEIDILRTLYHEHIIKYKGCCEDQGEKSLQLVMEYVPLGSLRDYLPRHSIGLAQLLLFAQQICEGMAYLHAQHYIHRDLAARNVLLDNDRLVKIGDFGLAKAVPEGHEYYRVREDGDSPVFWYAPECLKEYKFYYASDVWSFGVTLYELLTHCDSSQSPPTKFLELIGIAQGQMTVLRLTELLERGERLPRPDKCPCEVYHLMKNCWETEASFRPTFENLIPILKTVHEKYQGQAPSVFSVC
Description: TYK2 inhibition (Table 4).

T1 sequence (P23458 852-1154): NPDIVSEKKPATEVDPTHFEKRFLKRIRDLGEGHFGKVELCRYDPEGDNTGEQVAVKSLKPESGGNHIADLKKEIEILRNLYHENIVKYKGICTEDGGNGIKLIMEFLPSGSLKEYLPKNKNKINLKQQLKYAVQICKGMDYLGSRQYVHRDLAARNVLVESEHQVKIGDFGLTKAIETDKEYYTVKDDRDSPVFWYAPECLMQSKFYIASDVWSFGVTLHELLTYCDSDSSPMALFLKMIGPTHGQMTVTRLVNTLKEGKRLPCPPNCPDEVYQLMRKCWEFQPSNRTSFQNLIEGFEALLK

By Ki is commonly meant a measure of affinity in units of concentration, obtained from inhibition or displacement. For the compound `OCc1nc2cnc3[nH]ccc3c2n1C1CCN(CCF)CC1` [Example 508, {1-[1-(2-Fluoro-ethyl)-piperidin-4-yl]-1,6-dihydro-1,3,5,6-tetraaza-as-indacen-2-yl}-methanol], the Ki in assay [1] was determined as 2.14 nM; in assay [2], 10.3 nM; in assay [3], 23.2 nM; in assay [4], 10.2 nM.

For the compound `CC(C)NC(=O)Cc1nc2cnc3[nH]ccc3c2n1C1CCNCC1` [Example 261, N-Isopropyl-2-(1-piperidin-4-yl-1,6-dihydro-1,3,5,6-tetraaza-as-indacen-2-yl)-acetamide], the Ki was found to be 39 nM in assay [1], 426 nM in assay [2], 108 nM in assay [3] and 678 nM in assay [4].

For `COC1CNCCC1n1cnc2cnc3[nH]ccc3c21` (racemic) [Example 537, 1-(3-Methoxy-piperidin-4-yl)-1,6-dihydro-1,3,5,6-tetraaza-as-indacene], the Ki in assay [1] was determined as 25.2 nM; in assay [2], 33.8 nM; in assay [3] it was 322 nM; in assay [4] it was 122 nM.

On to `c1cncc(CN[C@H]2CC[C@H](n3cnc4cnc5[nH]ccc5c43)CC2)c1` [Example 336, Pyridin-3-ylmethyl-[4-(6H-1,3,5,6-tetraaza-as-indacen-1-yl)-cyclohexyl]-amine], for which the Ki in assay [1] was determined as 16 nM; in assay [2], 63.4 nM; in assay [3] it was 656 nM; in assay [4] it was 77.6 nM.

On to `Cc1nc2cnc3[nH]ccc3c2n1[C@@H]1C[C@H]2CC[C@@H](C1)N2Cc1ccccc1` [Example 271, 1-(8-Benzyl-8-aza-bicyclo[3.2.1]oct-3-yl)-2-methyl-1,6-dihydro-1,3,5,6-tetraaza-as-indacene], for which the Ki was 17.4 nM in assay [1], 12.4 nM in assay [2], 60.4 nM in assay [3] and 302 nM in assay [4].

`O=C(CN1CCC[C@@H](n2cnc3cnc4[nH]ccc4c32)C1)c1ccccc1` [Example 225, 1-Phenyl-2-[(R)-3-(6H-1,3,5,6-tetraaza-as-indacen-1-yl)-piperidin-1-yl]-ethanone]: the Ki in assay [1] came to 59.6 nM; in assay [2] it was 127 nM; in assay [3] it was 118 nM; in assay [4], 817 nM.

Turning to `N#CCCC1CCC(n2c(C(O)CO)nc3cnc4[nH]ccc4c32)CC1` (stereo not drawn) [Example 1006, 3-{4-[2-(1,2-Dihydroxy-ethyl)-6H-1,3,5,6-tetraaza-as-indacen-1-yl]-cyclohexyl}-propionitrile], the Ki in assay [1] is 0.8 nM; in assay [2], 4.49 nM; in assay [3] it was 11.3 nM; in assay [4] it was 3.52 nM.

Consider `N#CCCN1CCC(n2c(CNS(=O)(=O)C3CCCC3)nc3cnc4[nH]ccc4c32)CC1` [Example 499, Cyclopentanesulfonic acid {1-[1-(2-cyano-ethyl)-piperidin-4-yl]-1,6-dihydro-1,3,5,6-tetraaza-as-indacen-2-ylmethyl}-amide], for which the Ki in assay [1] stood at 13.8 nM; in assay [2], 85.6 nM; in assay [3] it was 103 nM; in assay [4] it was 417 nM.

With `N#CCC(=O)N1CCCC(n2c(CC3CC3)nc3cnc4[nH]ccc4c32)C1` (stereo not drawn) [Example 676, 3-[3-(2-Cyclopropylmethyl-6H-1,2,3,5,6-tetraaza-as-indacen-1-yl)-piperidin-1-yl]-3-oxo-propionitrile], the Ki was found to be 1.36 nM in assay [1], 7.87 nM in assay [2], 40.2 nM in assay [3] and 22.1 nM in assay [4].

For the compound `O=S(=O)(Cc1ccccc1)N1CCC(n2cnc3cnc4[nH]ccc4c32)CC1` [Example 449, 1-(1-Phenylmethanesulfonyl-piperidin-4-yl)-1,6-dihydro-1,3,5,6-tetraaza-as-indacene], the Ki in assay [1] is 3.5 nM; in assay [2] it was 8.22 nM; in assay [3] it was 32.6 nM; in assay [4], 58.2 nM.

Regarding `COCCOC(=O)N[C@H]1CC[C@H](n2cnc3cnc4[nH]ccc4c32)CC1` [Example 356, [4-(6H-1,3,5,6-Tetraaza-as-indacen-1-yl)-cyclohexyl]-carbamic acid 2-methoxy-ethyl ester], the Ki worked out at 10.6 nM in assay [1], 28.5 nM in assay [2], 209 nM in assay [3] and 192 nM in assay [4].

For `CC(O)c1nc2cnc3[nH]ccc3c2n1C1CCN(CCC#N)CC1` (racemic) [Example 158, Racemic 3-{4-[2-(1-Hydroxy-ethyl)-6H-1,2,3,5,6-tetraaza-as-indacen-1-yl]-piperidin-1-yl}-propionitrile], the Ki in assay [1] is 3.76 nM; in assay [2] it was 28.2 nM; in assay [3] it was 18.2 nM; in assay [4], 32.9 nM.

For the compound `C[C@@H](O)c1nc2cnc3[nH]ccc3c2n1C1CCOCC1` [Example 881, (R)-1-[1-(Tetrahydro-pyran-4-yl)-1,6-dihydro-1,3,5,6-tetraaza-as-indacen-2-yl]-ethanol], the Ki in assay [1] was determined as 26.4 nM; in assay [2], 280 nM; in assay [3] it was 90.6 nM; in assay [4], 59.7 nM.

Take `N#CCCN1CCC(n2c(CCC3CCCO3)nc3cnc4[nH]ccc4c32)CC1` (racemic) [Example 517, 3-(4-{2-[2-(Tetrahydro-furan-2-yl)-ethyl]-6H-1,3,5,6-tetraaza-as-indacen-1-yl}-piperidin-1-yl)-propionitrile]: the Ki in assay [1] came to 10.3 nM; in assay [2], 57.5 nM; in assay [3], 52.6 nM; in assay [4], 294 nM.

Take `O=S1(=O)CCCN1CCc1nc2cnc3[nH]ccc3c2n1C1CCCCC1` [Example 922, 1-Cyclohyl-2-[2-(1,1-dioxo-1-isothiazolidin-2-yl)-ethyl]-1,6-dihydro-1,3,5,6-tetraaza-as-indacene]: the Ki in assay [1] turned out to be 13.3 nM; in assay [2], 49.8 nM; in assay [3], 51.6 nM; in assay [4], 146 nM.

Turning to `c1ccc(CN2CCC[C@@H](n3nnc4cnc5[nH]ccc5c43)C2)cc1` [Example 18, 1-((R)-1-Benzyl-piperidin-3-yl)-1,6-dihydro-1,2,3,5,6-pentaaza-as-indacene], the Ki stood at 24.6 nM in assay [1], 40.1 nM in assay [2], 323 nM in assay [3] and 273 nM in assay [4].

Regarding `Cc1noc(CN2CCC(n3c([C@@H](C)O)nc4cnc5[nH]ccc5c43)CC2)n1` [Example 703, (R)-1-{1-[1-(3-Methyl-[1,2,4]oxadiazol-5-ylmethyl)-piperidin-4-yl]-1,6-dihydro-1,2,3,5,6-tetraaza-as-indacen-2-yl}-ethanol], the Ki in assay [1] was 1.97 nM; in assay [2], 30.1 nM; in assay [3], 5.01 nM; in assay [4], 182 nM.

As to `OCc1nc2cnc3[nH]ccc3c2n1C1CCCOC1` (single isomer, unassigned) [Example 463, [1-(Tetrahydro-pyran-3-yl)-1,6-dihydro-1,3,5,6-tetraaza-as-indacen-2-yl]-methanol], the Ki in assay [1] was found to be 12.2 nM; in assay [2] it was 74.9 nM; in assay [3] it was 191 nM; in assay [4] it was 55.5 nM.

On to `CS(=O)(=O)N1CCC[C@@H](n2cnc3cnc4[nH]ccc4c32)C1` [Example 9, 1-((R)-1-Methanesulfonyl-piperidin-3-yl)-1,6-dihydro-1,2,3,5,6-tetraaza-as-indacene], for which the Ki in assay [1] was found to be 7.48 nM; in assay [2] it was 6.5 nM; in assay [3], 16.6 nM; in assay [4], 35.4 nM.

As to `CC(O)c1nc2cnc3[nH]ccc3c2n1C1CCN(Cc2cnco2)CC1F` (stereo not drawn) [Example 933, 1-[1-(3-Fluoro-1-oxazol-5-ylmethyl-piperidin-4-yl)-1,6-dihydro-1,3,5,6-tetraaza-as-indacen-2-yl]-ethanol], the Ki in assay [1] is 1.84 nM; in assay [2] it was 38.5 nM; in assay [3], 11.2 nM; in assay [4], 54.5 nM.

Regarding `O=C(Cc1nc2cnc3[nH]ccc3c2n1C1CCCOC1)N1CCN(CCO)CC1` (racemic) [Example 976, 1-[4-(2-Hydroxy-ethyl)-piperazin-1-yl]-2-[1-(tetrahydro-pyran-3-yl)-1,6-dihydro-1,3,5,6-tetraaza-as-indacen-2-yl]-ethanone], the Ki in assay [1] is 32.1 nM; in assay [2] it was 405 nM; in assay [3] it was 208 nM; in assay [4], 299 nM.

In the case of `COCC(=O)NC1CCCC(n2cnc3cnc4[nH]ccc4c32)C1` (single isomer, unassigned) [Example 481, 2-Methoxy-N-[3-(6H-1,3,5,6-tetraaza-as-indacen-1-yl)-cyclohexyl]-acetamide], the inhibition constant Ki turned out to be 127 nM in assay [1], 268 nM in assay [2], 833 nM in assay [3] and 793 nM in assay [4].

As to `O=C(Cc1nc2cnc3[nH]ccc3c2n1C1CCCOC1)NCC(F)F` (racemic) [Example 973, N-(2,2-Difluoro-ethyl)-2-[1-(tetrahydro-pyran-3-yl)-1,6-dihydro-1,3,5,6-tetraaza-as-indacen-2-yl]-acetamide], the Ki turned out to be 23 nM in assay [1], 152 nM in assay [2], 130 nM in assay [3] and 215 nM in assay [4].

As to `Cc1nc2cnc3[nH]ccc3c2n1C1CCN(CC(O)(C(F)(F)F)C(F)(F)F)CC1` [Example 354, 1,1,1,3,3,3-Hexafluoro-2-[4-(2-methyl-6H-1,3,5,6-tetraaza-as-indacen-1-yl)-piperidin-1-ylmethyl]-propan-2-ol], the Ki in assay [1] came to 2.5 nM; in assay [2] it was 5.24 nM; in assay [3], 120 nM; in assay [4], 10.9 nM.
